From article PMC11676910, “Manganese(II) Complexes with Non-Steroidal Anti-Inflammatory Drugs: Structure and Biological Activity” (International Journal of Molecular Sciences, 2024)
Like-named read-outs stand apart in the source and are kept apart here.

Columns and labels:
CT DNA [1] = test: CT DNA binding by UV-vis spectroscopy titration; design: species or system calf; settings: for ΔA/A0 (%) hyper-/hypo-chromism of UV band / Δλ (nm) shift of λmax: on addition of CT DNA
[2] = target: human serum albumin (HSA) (Homo sapiens, UniProt P02768); settings: for HSA binding constant Κ(HSA): Scatchard equation, HSA 3 μM; for relative HSA fluorescence emission intensity (I/Io %) remaining: λem,max = 340 nm, lowest value reached, % of the initial HSA fluorescence
[3] = target: bovine serum albumin (BSA) (Bos taurus, UniProt P02769); test: BSA tryptophan fluorescence quenching; settings: for BSA binding constant Κ(BSA): Scatchard equation, BSA 3 μM; for relative BSA fluorescence emission intensity (I/Io, %) remaining: λem,max = 345 nm, lowest value reached, % of the initial BSA fluorescence
[4] = Solubility of the complexes; assay type: physicochemical
[5] = ABTS radical scavenging assay; settings: compound 0.1 mM in DMSO; absorbance at 734 nm 1 min after mixing
EB–DNA adduct (CT DNA) [6] = test: EB displacement from EB–DNA adduct by fluorescence emission spectroscopy; assay type: binding, calf; settings: for Stern–Volmer constant KSV (EB–DNA) / EB–DNA fluorescence quenching ΔI/Io (%): [EB] = 40 μM, [DNA] = 45 μM; for EB–DNA fluorescence quenching ΔI/Io (%): λexcitation 540 nm; for relative EB–DNA fluorescence intensity (I/Io, %) remaining: λemission = 592 nm, lowest value reached, % of the initial EB–DNA fluorescence; for quenching constant kq of the EB–DNA fluorescence: τo = 23 ns
EB–DNA adduct (CT DNA) [7] = settings: cited from earlier work
[8] = design: concentration or dose not given beside the values; settings: free NSAID; cited from earlier work
CT DNA [9] = settings: cited from earlier work; for ΔA/A0 (%) hyper-/hypo-chromism of UV band: first band listed in the cell
[10] = first band listed in the cell, + hyperchromism, − hypochromism
[11] = first band listed in the cell, + red shift, − blue shift
[12] = second band listed in the cell, <−50 = intense hypochromism
[13] = second band listed in the cell, elim = elimination

human serum albumin (HSA), sequence (P02768 25-609): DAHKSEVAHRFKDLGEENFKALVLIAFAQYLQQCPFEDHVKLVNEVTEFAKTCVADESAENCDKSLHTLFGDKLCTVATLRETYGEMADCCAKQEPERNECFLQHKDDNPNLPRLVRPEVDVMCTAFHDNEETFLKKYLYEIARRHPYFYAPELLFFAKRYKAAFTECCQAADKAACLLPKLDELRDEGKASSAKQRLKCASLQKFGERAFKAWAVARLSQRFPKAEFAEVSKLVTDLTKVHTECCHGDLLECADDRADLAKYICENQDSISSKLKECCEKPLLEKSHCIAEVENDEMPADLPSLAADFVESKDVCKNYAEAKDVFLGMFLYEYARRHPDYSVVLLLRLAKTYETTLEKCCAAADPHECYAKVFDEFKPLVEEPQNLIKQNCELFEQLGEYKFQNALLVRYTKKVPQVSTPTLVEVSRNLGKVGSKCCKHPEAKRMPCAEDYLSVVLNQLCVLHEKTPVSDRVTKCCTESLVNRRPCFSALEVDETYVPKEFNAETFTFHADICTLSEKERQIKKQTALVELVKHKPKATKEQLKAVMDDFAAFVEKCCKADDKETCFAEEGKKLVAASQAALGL
bovine serum albumin (BSA), sequence (P02769 25-607): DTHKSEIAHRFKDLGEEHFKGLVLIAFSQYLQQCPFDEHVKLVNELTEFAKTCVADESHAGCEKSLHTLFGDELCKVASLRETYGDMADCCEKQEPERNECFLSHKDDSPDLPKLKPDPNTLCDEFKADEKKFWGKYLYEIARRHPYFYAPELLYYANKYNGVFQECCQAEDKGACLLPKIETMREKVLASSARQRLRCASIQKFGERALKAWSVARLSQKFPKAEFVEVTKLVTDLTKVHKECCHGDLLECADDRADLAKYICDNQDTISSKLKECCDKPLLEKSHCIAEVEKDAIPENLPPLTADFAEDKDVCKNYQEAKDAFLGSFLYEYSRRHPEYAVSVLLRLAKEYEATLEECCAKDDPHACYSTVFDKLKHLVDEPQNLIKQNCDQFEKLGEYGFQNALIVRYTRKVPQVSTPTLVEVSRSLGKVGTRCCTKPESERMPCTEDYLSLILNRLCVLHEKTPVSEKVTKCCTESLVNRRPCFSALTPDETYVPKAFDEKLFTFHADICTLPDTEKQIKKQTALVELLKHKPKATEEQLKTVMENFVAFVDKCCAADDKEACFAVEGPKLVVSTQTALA

Compound | ΔA/A0 (%) hyper-/hypo-chromism of UV band (CT DNA [1]; [10]) | Δλ (nm) shift of λmax (CT DNA [1]; [11]) | HSA binding constant Κ(HSA) [2] | relative HSA fluorescence emission intensity (I/Io %) remaining [2] | BSA binding constant Κ(BSA) [3] | relative BSA fluorescence emission intensity (I/Io, %) remaining [3] | solubility [4] | % ABTS radical scavenging activity (ABTS%) [5] | Stern–Volmer constant KSV (EB–DNA) (EB–DNA adduct (CT DNA) [6]) | EB–DNA fluorescence quenching ΔI/Io (%) (EB–DNA adduct (CT DNA) [6]) | relative EB–DNA fluorescence intensity (I/Io, %) remaining (EB–DNA adduct (CT DNA) [6]) | quenching constant kq of the EB–DNA fluorescence (EB–DNA adduct (CT DNA) [6]) | ΔA/A0 (%) hyper-/hypo-chromism of UV band (CT DNA [1]; [12]) | BSA quenching constant kq(BSA) [3] | Δλ (nm) shift of λmax (CT DNA [1]; [13]) | further results
Cc1ccc(Cl)c(Nc2ccccc2C(=O)[O-])c1Cl.Cc1ccc(Cl)c(Nc2ccccc2C(=O)[O-])c1Cl.O.O.[Mn+2].c1ccncc1.c1ccncc1.c1ccncc1.c1ccncc1 [Complex 1, [Μn(meclf–O)2(py)2(H2O)2]∙2py] | +10% | −2 nm | 8.83 (±0.24) × 10^5 M^–1 | 21.8% | 9.58 (±0.07) × 10^5 M^–1 | 11.8% | soluble in DMSO and DMF | 39.18 ± 3.27% | 1.15 (±0.17) × 10^5 M^–1 | 53.0% | 47.0% | 4.99 (±0.15) × 10^12 M^–1s^–1 |  |  |  | 
CO.CO.Cc1ccc(Cl)c(Nc2ccccc2C(=O)[O-])c1Cl.Cc1ccc(Cl)c(Nc2ccccc2C(=O)[O-])c1Cl.[Mn+2].c1cnc2c(c1)ccc1cccnc12 [Complex 3, [Μn(meclf–O)2(phen)(MeOH)2]] | −6% | +2 nm | 8.73 (±0.06) × 10^5 M^–1 | 17.0% | 2.71 (±0.16) × 10^6 M^–1 | 8.0% | soluble in DMSO, and DMF | 18.66 ± 0.71% | 1.18 (±0.32) × 10^6 M^–1 | 79.6% | 20.4% | 5.15 (±0.14) × 10^13 M^–1s^–1 |  |  |  | 
CO.CO.Cc1ccc(Cl)c(Nc2ccccc2C(=O)[O-])c1Cl.Cc1ccc(Cl)c(Nc2ccccc2C(=O)[O-])c1Cl.[Mn+2].c1ccc(-c2ccccn2)nc1 [Complex 4, [Mn(meclf–O)2(bipy)(MeOH)2]] | +15% |  | 9.38 (±0.29) × 10^5 M^–1 |  | 9.61 (±0.06) × 10^5 M^–1 |  |  | 98.69 ± 0.06% | 1.54 (±0.31) × 10^5 M^–1 | 44.8% |  | 6.69 (±0.13) × 10^12 M^–1s^–1 | +9% | 1.76 (±0.11) × 10^14 M^–1s^–1 |  | 
Cc1ccc2ccc3ccc(C)nc3c2n1.O=C([O-])c1ccccc1Nc1cccc(C(F)(F)F)c1.O=C([O-])c1ccccc1Nc1cccc(C(F)(F)F)c1.[Mn+2] [Complex 7, [Μn(fluf–O,O’)2(neoc)]] | −6% | 0 nm | 8.33 (±0.04) × 10^5 M^–1 | 14.4% | 4.69 (±0.37) × 10^5 M^–1 | 10.8% | soluble in DMSO | 29.70 ± 2.86% | 5.55(±0.12) × 10^5 M^–1 | 52.1% | 47.9% | 2.41 (±0.05) × 10^13 M^–1s^–1 |  | 4.62 (±0.11) × 10^13 M^–1s^–1 |  | DNA binding constant Kb (CT DNA [1]; Wolfe–Shimer equation, buffer 150 mM NaCl, 15 mM trisodium citrate pH 7.0): 1.10 (±0.02) × 10^6 M^–1
Cc1c(Cl)cccc1Nc1ccccc1C(=O)[O-].Cc1c(Cl)cccc1Nc1ccccc1C(=O)[O-].Cc1ccc2ccc3ccc(C)nc3c2n1.[Mn+2] [Complex 8, [Μn(tolf–O,O’)2(neoc)]] | +5% | +1 nm | 6.35 (±0.29) × 10^5 M^–1 | 7.4% | 7.23 (±0.23) × 10^5 M^–1 | 4.4% | soluble in DMSO | 99.63 ± 0.07% | 2.35 (±0.48) × 10^5 M^–1 | 50.0% | 50.0% | 1.02 (±0.03) × 10^13 M^–1s^–1 | +2% | 1.36 (±0.53) × 10^14 M^–1s^–1 | +2 nm | 
O=C(O)c1cc(-c2ccc(F)cc2F)ccc1O [Complex H2difl, diflunisal] |  |  |  |  |  |  |  |  |  |  |  |  |  |  |  | EB–DNA fluorescence quenching ΔI/Io (%) (EB–DNA adduct (CT DNA) [7]): 65.0%; Stern–Volmer constant KSV (EB–DNA) (EB–DNA adduct (CT DNA) [7]): 8.59 (±0.35) × 10^5 M^–1; quenching constant kq of the EB–DNA fluorescence (EB–DNA adduct (CT DNA) [7]): 3.73 (±0.15) × 10^13 M^–1s^–1; % ABTS radical scavenging activity (ABTS%) [8]: 76.58 ± 0.74%; ΔA/A0 (%) hyper-/hypo-chromism of UV band (CT DNA [9]): +15%
CC[n+]1c(-c2ccccc2)c2cc(N)ccc2c2ccc(N)cc21.[Br-] [EB, 3,8–diamino–5–ethyl–6–phenyl–phenanthridinium bromide] |  |  |  |  |  |  |  |  |  |  |  |  |  |  |  | DNA binding constant Kb (CT DNA [9]; classic intercalator): 1.23 (±0.07) × 10^5 M^−1
O=C(O)Cc1ccccc1Nc1c(Cl)cccc1Cl [Na dicl, sodium diclofenac] |  |  |  |  |  |  |  |  |  |  |  |  |  |  |  | EB–DNA fluorescence quenching ΔI/Io (%) (EB–DNA adduct (CT DNA) [7]): 65.0%; Stern–Volmer constant KSV (EB–DNA) (EB–DNA adduct (CT DNA) [7]): 2.47 (±0.06) × 10^5 M^–1; quenching constant kq of the EB–DNA fluorescence (EB–DNA adduct (CT DNA) [7]): 1.07 (±0.03) × 10^13 M^–1s^–1; % ABTS radical scavenging activity (ABTS%) [8]: 76.35 ± 0.75%; ΔA/A0 (%) hyper-/hypo-chromism of UV band (CT DNA [9]): −7.5%
Cc1c(C)c2c(c(C)c1O)CCC(C)(C(=O)O)O2 (stereo not shown) [Trolox, 6–Hydroxy–2,5,7,8–tetramethylchromane–2–carboxylic acid, reference compound] |  |  |  |  |  |  |  | 91.8 ± 0.17% |  |  |  |  |  |  |  | 
[Μn(Hdifl–O,O’)(Hdifl–O)(neoc)]·0.5MeOH [Complex 9] | +6% | 0 nm | 5.44 (±0.24) × 10^5 M^–1 | 24.9% | 5.67 (±0.27) × 10^5 M^–1 | 24.8% | soluble in DMSO | 25.80 ± 1.43% | 1.01 (±0.42) × 10^6 M^–1 |  | 29.4% | 4.39 (±0.10) × 10^13 M^–1s^–1 |  | 2.99 (±0.16) × 10^13 M^–1s^–1 |  | 
[Μn(dicl–O,O’)2(neoc)]∙0.25 H2O [Complex 5] | +8% | +2 nm | 3.09 (±0.21) × 10^5 M^–1 | 0.8% | 6.32 (±0.32) × 10^5 M^–1 | 12.7% | soluble in DMSO | 99.20 ± 0.06% | 7.37 (±0.05) × 10^5 M^–1 | 69.9% | 30.1% | 3.20 (±0.21) × 10^13 M^–1s^–1 | +7% | 3.46 (±0.16) × 10^13 M^–1s^–1 | −4 nm | 
[Μn(mef–O)2(py)2(H2O)(MeOH)]∙1.5py [Complex 2] | +7% | 0 nm | 1.92 (±0.10) × 10^6 M^–1 | 0.3% | 1.03 (±0.16) × 10^6 M^–1 | 9.7% | soluble in DMSO and DMF | 92.56 ± 0.74% | 2.30 (±0.53) × 10^5 M^–1 |  | 47.4% | 1.00 (±0.155) × 10^13 M^–1s^–1 | < −50% |  | elim | overall quenching of albumin fluorescence ([2]; % of the fluorescence intensity initially measured for albumin (HSA per Figure 11C)): 99.7%
[Μn(mef–O,O’)2(neoc)]∙1.5MeOH∙0.25 H2O [Complex 6] | +3% | 0 nm | 9.48 (±0.35) × 10^5 M^–1 | 5.6% | 1.08 (±0.38) × 10^6 M^–1 | 5.9% | soluble in DMSO | 98.69 ± 0.07% | 4.29 (±0.32) × 10^5 M^–1 | 60.6% | 39.4% | 1.86 (±0.18) × 10^13 M^–1s^–1 | +2% | 1.87 (±0.04) × 10^14 M^–1s^–1 | −2 nm | 
